One data set has as its system MRSA ATCC 43300. As to the kind of experiment: antimicrobial activity in presence of Muller-Hinton 20%. Format: cell-based, Staphylococcus aureus. The conditions noted are these: 20% of Muller-Hinton medium. As for the experimental part: This example verifies the peptides antimicrobial activity in presence of a concentration of 20% of Muller-Hinton liquid medium, characterized by the presence of salts with high concentration.
Peptides were tested in the ability to inhibit bacterial growth in liquid medium. 50 µl of peptides at a concentration between 3.1 µg/ml (NCP-0=1.4µM; NCP-2=[…]; NCP-3=1.3 µM) and 100 µg/ml (NCP-0=46.3 µM; NCP-2=43.2 µM; NCP-3=41.6 µM) were added in microtiter plate wells with phosphate buffer 10 mM with Muller-Hinton liquid medium al the final concentration of 20% and one of these bacteria: E. coli ATCC 25922, Pseudomonas aeruginosa ATCC 27853, Staphylococcus aureus ATCC 25923 and Staphylococcus aureus methicillin resistant ATCC 43300. After 2 hours incubation at 37°C, bacteria were transplanted on solid culture medium. Bacterial cultures were cultivated without peptides as growth control.

Data set [1] deals with Enterococcus hirae ATCC 10541. Put plainly: micro-dilution in liquid medium and transplant on solid medium, Gram-positive bacteria. To be noted: 2 hours at 37°C, transplant on agar. Format: cell-based. As for the experimental part: (§1) For each bacterial strain 3-5 morphologically similar colonies from fresh cultures were taken and inoculated in Brain Heart Infusion broth, then incubated at 37°C in agitation at 225 r.p.m. for about 3-4 hours. Then the bacterial suspension was centrifuged at 1000 G for 20 minutes and the pellet resuspended in phosphate buffer pH 7, 10 mM. The turbidity of the bacterial suspension was measured using a spectrophotometer with absorbance of 600 nm; the range 0,08-0,13 equates to about 10^8 cfu/ml. The bacterial suspension was diluted 1:100 in phosphate buffer 10mM to obtain a bacterial concentration of about 10^6 cfu/ml. Within 30 minutes 50 µl of the suspension 10^6 cfu/ml were inoculated in each well of the microtiter plate, to obtain a bacterial concentration of about 5x10^5 cfu/ml.
(§2) The peptides ability to inhibit the bacterial growth in liquid cultures was tested. 50 µl of each peptides solutions of about 0.2-50 µM were added in microtiter plates with 96 wells with liquid culture medium and one of these bacterial strains: Staphylococcus aureus ATCC 25923, MRSA ATCC 43300, Streptococcus agalactiae ATCC 13813 and Enterococcus hirae ATCC 10541. After 2 hours of incubation at 37°C, bacterial suspensions were put on solid culture medium. Bacterial cultures were cultivated without peptides as growth control.
(§3) The bacterial suspension and differing peptides concentrations were put in contact for about 2 hours at 37°C. After this incubation, 20 µl from each well of the plate were transplanted on solid culture medium, Columbia agar with 5% of bovine erythrocytes for Gram-positive bacteria. The inoculum was evenly distributed on the agar medium with the aid of a sterile disposable handle. After an incubation time of 24 hours at 37°C, the bacterial colonies (cfu) were counted.

The test system of data set [2] is Streptococcus agalactiae ATCC 13813. The description is as above. Format: cell-based. To be noted: 2 hours at 37°C, transplant on agar. The procedure: as §1, §2, §3
Data set [3] concerns Staphylococcus aureus ATCC 22953. The description is as above. It counts as cell-based. To be noted: 2 hours at 37°C, transplant on agar. The procedure: as §1, §2, §3
Data set [4] relates to Gram-negative tested bacteria. As to the kind of experiment: micro-dilution and transplant on agar, summary over Gram-negative panel. Format: cell-based. To be noted: almost all Gram-negative tested bacteria. The procedure: as §1, with “range 0.08-0.13” for “range 0,08-0,13”, “suspension (10^6 cfu/ml)” for “suspension 10^6 cfu/ml”
The peptides ability to inhibit the bacterial growth in liquid cultures was tested. 50 µl of each peptides solutions of about 0,2-50 µM were added in microtiter plates with 96 wells with U-shaped bottom, containing the liquid culture medium and one of these bacterial strains: E coli ATCC 25922, Pseudomonas. […]
The bacterial suspension and peptides were put in contact for 2 hours at 37°C, with differing concentrations of the peptide. […] After an incubation time of 24 hours at 37°C, the bacterial colonies (cfu) were counted.
On the technique in general: Dilution methods test growth across graded concentrations, often in twofold steps.

Another data set deals with E. coli ML-35pYC. As to the kind of experiment: membrane permeabilization assay (CENTA outer membrane, ONPG inner membrane). It counts as cell-based. The conditions noted are these: peptide 12.5 µg/ml; absorbance every 10 minutes for 240 minutes. The procedure: Methods: to test the bacterial membrane permeabilization caused by the peptides of the invention, E. coli ML-35pYC strain was used. This bacterial strain express ampicillin resistence, a constitutive expression of cytoplasmic β-galactosidase and is engineered with a plasmid for a periplasmic β-lactamase synthesis. Sixty microliters (60 µl) of bacterial suspension, containing E. coli ML-35pYC strain, were added to 60 µl of ONPG solution (15 mM) or to 60 µl of CENTA (1,5 mM) diluted in phosphate buffer. Subsequently 120 µl of the examined peptide were added, to obtain a final concentration of 12.5 µg/ml (NCP-2=5,4 µM, NCP-3=5.2 µM). The absorbance value was registered at […] for ONPG and at 405 nm for CENTA, every 10 minutes for 240 minutes to assess the reaction's kinetics.

Data set [5] deals with epithelial MDBK cells (Madin Darby Bovine Kidney). Put plainly: cytotoxicity against eukaryotic cells, Trypan Blue. The conditions noted are these: overnight incubation. Format: cell-based. The procedure: Peptides cytotoxicity against epithelial MDBK cells (Madin Darby Bovine Kidney) was determined using cell cultures of about 5x10^5 cells/ml with and without peptides, with overnight incubation at 37°C with CO2. The negative control was in medium without peptide; positive control was in medium with 0.2% of Triton x100, to completely lyse cells. Cells vitality was assessed adding every well with 20 µl of Trypan Blue, incubating other 5 minutes at 37°C. MCC10 was the minimal peptide concentration with 10% of cytotoxicity.

Data on one compound can be found in patent publication EP3298025B1, “NEW AMINO ACID SEQUENCES WITH MI[…] DERIVED FROM NAJA ATRA CARDIOTOXIN 1 (CTX-1)” (Università degli Studi di Parma, priority 2015, dated 2016).

SMILES strings stand for the structures. Values joined by “and” are separate entries in the source; they are usually repeats but may differ in a detail not shown here. Equal entries are not always repeated. Residues, ends and D or L forms follow the SMILES beside them.

Regarding `CC[C@H](C)[C@H](NC(=O)[C@H](CCCCN)NC(=O)[C@H](Cc1ccc(O)cc1)NC(=O)[C@H](CS)NC(=O)[C@H](CC(C)C)NC(=O)[C@H](CC(N)=O)NC(=O)[C@H](CCCCN)NC(=O)CNC(=O)[C@H](C)NC(=O)[C@@H]1CCCN1C(=O)[C@H](CS)NC(=O)[C@@H](NC(=O)[C@H](CCCCN)NC(=O)[C@H](CO)NC(=O)[C@H](C)NC(=O)[C@@H](NC(=O)[C@@H]1CCCN1C(=O)[C@@H](NC(=O)[C@H](CC(C)C)NC(=O)[C@@H](N)CCCCN)[C@@H](C)CC)[C@@H](C)CC)[C@@H](C)O)C(=O)O` [NCP-0, K LIPIA SKT CPA GKN LCY KI] (H-KLIPIASKTCPAGKNLCYKI-OH; N-terminus and C-terminus assumed), the “Antimicrobial activity (% to control)” value in the data set on MRSA ATCC 43300 (peptide 3.1 µg/ml), in the data set on MRSA ATCC 43300 (peptide 6.3 µg/ml), in the data set on MRSA ATCC 43300 (peptide 12.5 µg/ml) and in the data set on MRSA ATCC 43300 (peptide 100 µg/ml) was 0% throughout. Moreover, the LD90 in data set [1] was > 100 µg/ml and > 46.3 µM; in data set [2] it was 100 µg/ml and 46.3 µM; in data set [3] it was > 100 µg/ml and > 46.3 µM. Besides, the LD99 in data set [1] was > 200 µg/ml and > 92.6 µM; in data set [2] it was > 100 µg/ml and > 46.3 µM; in data set [3], > 200 µg/ml and > 92.6 µM. Moreover, the antimicrobial activity entry in data set [4] was “scarcely active”. In addition, the “damage to the inner membrane (ONPG)” value in the data set with E. coli ML-35pYC was “had not demonstrated activity on outer or inner membrane”. Besides, in the data set with E. coli ML-35pYC, the “damage to the outer membrane (CENTA)” value was “had not demonstrated activity on outer or inner membrane”. The figures for the “Cytotoxicity: cell number percentage reduction in comparison with control” value in data set [5] (peptide 12.5 µg/ml) and in data set [5] (peptide 100 µg/ml) were 4% and 6%, respectively.
